Source: patent US20230406864A1, “7-AZOLE SUBSTITUTED 2-AMINOQUINAZOLINE INHIBITORS OF HPK1” (MERCK SHARP & DOHME LLC, priority 2020, published 2023)

target: T1, Human HPK1, catalytic domain (Homo sapiens, UniProt Q92918); experiment: HPK1-SLP76 TR-FRET assay; format: biochemical; conditions: HPK1 kinase domain 0.075 nM; full length SLP-76 10 nM; ATP 10 μM; 30 min preincubation; 60 min reaction; room temperature
T1 construct: purchased Cama (so in the source)
T1 sequence (Q92918 1-346): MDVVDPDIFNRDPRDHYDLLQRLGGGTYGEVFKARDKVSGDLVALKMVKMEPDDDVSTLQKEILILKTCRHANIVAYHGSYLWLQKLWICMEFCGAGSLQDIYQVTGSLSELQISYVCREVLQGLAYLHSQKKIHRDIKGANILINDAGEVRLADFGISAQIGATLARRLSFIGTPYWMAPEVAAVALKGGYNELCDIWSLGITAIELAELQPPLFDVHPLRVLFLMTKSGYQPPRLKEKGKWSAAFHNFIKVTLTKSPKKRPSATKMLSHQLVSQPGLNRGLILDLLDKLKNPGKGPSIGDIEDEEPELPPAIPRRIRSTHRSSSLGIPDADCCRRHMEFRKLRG

| Compound | IC50 [pM] |
| --- | --- |
| Cc1nn(CC(F)F)cc1Nc1ncc2c(N)c(F)c(-c3cnc4c(c3C)NCCO4)cc2n1 [Example 2-31, N~2~-[1-(2,2-difluoroethyl)-3-methyl-1H-pyrazol-4-yl]-6-fluoro-7-(8-methyl-2,3-dihydro-1H-pyrido[2,3-b][1,4]oxazin-7-yl)quinazoline-2,5-diamine] | 200 |
| Cc1c(-c2cc3nc(Nc4cnn(C5CNC5)c4)ncc3c(N)c2F)cnc2c1NCCO2 [Example 2-5, N~2~-[1-(azetidin-3-yl)-1H-pyrazol-4-yl]-6-fluoro-7-(8-methyl-2,3-dihydro-1H-pyrido[2,3-b][1,4]oxazin-7-yl)quinazoline-2,5-diamine] | 290 |
| Cc1c(-c2cc3nc(Nc4cnn(CC(C)(C)O)c4Cl)ncc3c(N)c2F)cnc2c1NCCO2 [Example 2-18, 1-(4-{[5-amino-6-fluoro-7-(8-methyl-2,3-dihydro-1H-pyrido[2,3-b][1,4]oxazin-7-yl)quinazolin-2-yl]amino}-5-chloro-1H-pyrazol-1-yl)-2-methypropan-2-ol] | 2000 |
| Cc1c(-c2cc3nc(Nc4cnn(CC(C)C)c4)ncc3c(N)c2F)cnc2c1NCCO2 [Example 2-13, 6-fluoro-7-(8-methyl-2,3-dihydro-1H-pyrido[2,3-b][1,4]oxazin-7-yl)-N~2~-[1-(2-methylpropyl)-1H-pyrazol-4-yl]quinazoline-2,5-diamine] | 770 |
| Cc1c(-c2cc3nc(Nc4cnn(C5CC6(CNC6)C5)c4)ncc3c(N)c2F)cnc2c1NCCO2 [Example 2-4, N~2~-[1-(2-azaspiro[3.3]heptan-6-yl)-1H-pyrazol-4-yl]-6-fluoro-7-(8-methyl-2,3-dihydro-1H-pyrido[2,3-b][1,4]oxazin-7-yl)quinazoline-2,5-diamine] | 470 |
| Cc1c(-c2cc3nc(Nc4cnn(C(C)C)c4)ncc3c(N)c2F)cnc2c1NCCO2 [Example 2-14, 6-fluoro-7-(8-methyl-2,3-dihydro-1H-pyrido[2,3-b][1,4]oxazin-7-yl)-N~2~-[1-(propan-2-yl)-1H-pyrazol-4-yl]quinazoline-2,5-diamine] | 160 |
| CCn1cc(Nc2ncc3c(N)c(F)c(-c4cnc5c(c4C)NCCO5)cc3n2)cn1 [Example 2-22, N~2~-(1-ethyl-1H-pyrazol-4-yl)-6-fluoro-7-(8-methyl-2,3-dihydro-1H-pyrido[2,3-b][1,4]oxazin-7-yl)quinazoline-2,5-diamine] | 76 |
| Cc1nn(C)cc1Nc1ncc2c(N)c(F)c(-c3cnc4c(c3C)NCCO4)cc2n1 [Example 2-34, N~2~-(1,3-dimethyl-1H-pyrazol-4-yl)-6-fluoro-7-(8-methyl-2,3-dihydro-1H-pyrido[2,3-b][1,4]oxazin-7-yl)quinazoline-2,5-diamine] | 58 |
| Cc1c(-c2cc3nc(Nc4cnn(CC5CC5)c4)ncc3c(N)c2F)cnc2c1NCCO2 [Example 2-6, N~2~-[1-(cyclopropylmethyl)-1H-pyrazol-4-yl]-6-fluoro-7-(8-methyl-2,3-dihydro-1H-pyrido[2,3-b][1,4]oxazin-7-yl)quinazoline-2,5-diamine] | 140 |
| Cc1cnsc1Nc1ncc2c(N)c(F)c(-c3cnc4c(c3C)NCCO4)cc2n1 [Example 2-37, 6-fluoro-7-(8-methyl-2,3-dihydro-1H-pyrido[2,3-b][1,4]oxazin-7-yl)-N~2~-(4-methyl-1,2-thiazol-5-yl)quinazoline-2,5-diamine] | 71 |
| COC(=O)C12CC(n3cc(Nc4ncc5c(N)c(F)c(-c6cnc7c(c6C)NCCO7)cc5n4)cn3)(C1)C2 [Example 2-15, methyl 3-(4-{[5-amino-6-fluoro-7-(8-methyl-2,3-dihydro-1H-pyrido[2,3-b][1,4]oxazin-7-yl)quinazolin-2-yl]amino}-1H-pyrazol-1-yl)bicyclo[1.1.1]pentane-1-carboxylate] | 220 |
| Cc1c(-c2ccc3cnc(Nc4cc5n(n4)CCN(C(C)C)C(=O)C5)nc3c2)cnc2c1NCCO2 [Example 1-7, 2-{[7-(8-methyl-2,3-dihydro-1H-pyrido[2,3-b][1,4]oxazin-7-yl)quinazolin-2-yl]amino}-6-(propan-2-yl)-7,8-dihydro-4H-pyrazolo[1,5-d][1,4]diazepin-5(6H)-one] | 340 |
| Cc1c(-c2cc3nc(Nc4cnn(C5CC5)c4Cl)ncc3c(N)c2F)cnc2c1NCCO2 [Example 2-25, N~2~-(5-chloro-1-cyclopropyl-1H-pyrazol-4-yl)-6-fluoro-7-(8-methyl-2,3-dihydro-1H-pyrido[2,3-b][1,4]oxazin-7-yl)quinazoline-2,5-diamine] | 490 |
| Cc1c(-c2c(F)c(N)c3cnc(Nc4cnn(C5(C)CC5)c4)nc3c2Cl)cnc2c1NCCO2 [Example 2-43, (+ and −)-8-chloro-6-fluoro-N~2~-[1-(1-methylcyclopropyl)-1H-pyrazol-4-yl]-7-(8-methyl-2,3-dihydro-1H-pyrido[2,3-b][1,4]oxazin-7-yl)quinazoline-2,5-diamine] | 140 |
| Cc1c(-c2cc3nc(Nc4cnn(C5CC6(C5)CN(C5(C)COC5)C6)c4)ncc3c(N)c2F)cnc2c1NCCO2 [Example 2-2, 6-fluoro-7-(8-methyl-2,3-dihydro-1H-pyrido[2,3-b][1,4]oxazin-7-yl)-N~2~-{1-[2-(3-methyloxetan-3-yl)-2-azaspiro[3.3]heptan-6-yl]-1H-pyrazol-4-yl}quinazoline-2,5-diamine] | 140 |
| Cc1c(-c2ccc3cnc(Nc4cc5n(n4)CC(=O)N(C)CC54CC4)nc3c2)cnc2c1NCCO2 [Example 1-4, 6′-methyl-2′-{[7-(8-methyl-2,3-dihydro-1H-pyrido[2,3-b][1,4]oxazin-7-yl)quinazolin-2-yl]amino}-5′,6′-dihydrospiro[cyclopropane-1,4′-pyrazolo[1,5-d][1,4]diazepin]-7′(8′H)-one] | 5300 |
| Cc1c(-c2cc3nc(Nc4cnn(C5CCN(C6(C)COC6)CC5)c4)ncc3c(N)c2F)cnc2c1NCCO2 [Example 2-3, 6-fluoro-7-(8-methyl-2,3-dihydro-1H-pyrido[2,3-b][1,4]oxazin-7-yl)-N~2~-{1-[1-(3-methyloxetan-3-yl)piperidin-4-yl]-1H-pyrazol-4-yl}quinazoline-2,5-diamine] | 120 |
| CCC(=O)N1CC(n2cc(Nc3ncc4c(N)c(F)c(-c5cnc6c(c5C)NCCO6)cc4n3)cn2)C1 [Example 2-1, 1-[3-(4-{[5-amino-6-fluoro-7-(8-methyl-2,3-dihydro-1H-pyrido[2,3-b][1,4]oxazin-7-yl)quinazolin-2-yl]amino}-1H-pyrazol-1-yl)azetidin-1-yl]propan-1-one] | 420 |
| Cc1c(-c2cc3nc(Nc4cnn(CS(C)(=O)=O)c4)ncc3c(N)c2F)cnc2c1NCCO2 [Example 2-42, 6-fluoro-7-(8-methyl-2,3-dihydro-1H-pyrido[2,3-b][1,4]oxazin-7-yl)-N2-(1-((methylsulfonyl)methyl)-1H-pyrazol-4-y)quinazoline-2,5-diamine] | 130 |
| Cc1c(-c2cc3nc(Nc4cnn(Cc5ccccc5)c4)ncc3c(N)c2F)cnc2c1NCCO2 [Example 2-12, N~2~-(1-benzyl-1H-pyrazol-4-yl)-6-fluoro-7-(8-methyl-2,3-dihydro-1H-pyrido[2,3-b][1,4]oxazin-7-yl)quinazoline-2,5-diamine] | 2800 |
| Cc1c(-c2cc3nc(Nc4cnn(C(F)F)c4C)ncc3c(N)c2F)cnc2c1NCCO2 [Example 2-29, N~2~-[1-(difluoromethyl)-5-methyl-1H-pyrazol-4-yl]-6-fluoro-7-(8-methyl-2,3-dihydro-1H-pyrido[2,3-b][1,4]oxazin-7-yl)quinazoline-2,5-diamine] | 100 |
| CCC(=O)N1CC(n2cc(Nc3ncc4ccc(-c5cnc6c(c5C)NCCO6)cc4n3)cn2)C1 [Example 1-3, 1-[3-(4-{[7-(8-methyl-2,3-dihydro-1H-pyrido[2,3-b][1,4]oxazin-7-yl)quinazolin-2-yl]amino}-1H-pyrazol-1-yl)azetidin-1-yl]propan-1-one] | 260 |
| Cc1c(-c2cc3nc(Nc4cnn(C5CCC5)c4)ncc3c(N)c2F)cnc2c1NCCO2 [Example 2-23, N~2~-(1-cyclobutyl-1H-pyrazol-4-yl)-6-fluoro-7-(8-methyl-2,3-dihydro-1H-pyrido[2,3-b][1,4]oxazin-7-yl)quinazoline-2,5-diamine] | 190 |
| CNC(=O)Cn1cc(Nc2ncc3c(N)c(F)c(-c4cnc5c(c4C)NCCO5)cc3n2)c(C)n1 [Example 2-40, 2-(4-{[5-amino-6-fluoro-7-(8-methyl-2,3-dihydro-1H-pyrido[2,3-b][1,4]oxazin-7-yl)quinazolin-2-yl]amino}-3-methyl-1H-pyrazol-1-yl)-N-methylacetamide] | 270 |
| Cc1c(-c2ccc3cnc(Nc4cnn(C5CC6(C5)CN(C5(C)COC5)C6)c4)nc3c2)cnc2c1NCCO2 [Example 1-2, 7-(8-methyl-2,3-dihydro-1H-pyrido[2,3-b][1,4]oxazin-7-yl)-N-{1-[2-(3-methyloxetan-3-yl)-2-azaspiro[3.3]heptan-6-yl]-1H-pyrazol-4-yl}quinazolin-2-amine] | 220 |
| Cc1c(-c2cc3nc(Nc4cnn(C5CC5)c4)ncc3c(N)c2F)cnc2c1NCCO2 [Example 2-9, N~2~-(1-cyclopropyl-1H-pyrazol-4-yl)-6-fluoro-7-(8-methyl-2,3-dihydro-1H-pyrido[2,3-b][1,4]oxazin-7-yl)quinazoline-2,5-diamine] | 140 |
| Cc1c(-c2cc3nc(Nc4cnn([C@@H]5CCN(C)C5)c4)ncc3c(N)c2F)cnc2c1NCCO2 [Example 2-48, (R)-6-fluoro-7-(8-methyl-2,3-dihydro-1H-pyrido[2,3-b][1,4]oxazin-7-yl)-N2-(1-(1-methylpyrrolidin-3-yl)-1H-pyrazol-4-yl)quinazoline-2,5-diamine] | 166 |
